Columns and labels:
Assay type in all cases: in vivo
corn (Zea mays) [1] = assay: Test A postemergence application, visual injury rating 0-100; conditions: 10 days
In short: (§1)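 Rating: visual, day 10, untreated plants as reference, 0 no effect to 100 full control. Plants were in loam-sand and were treated either preemergence via directed soil spray or postemergence at the one- to two-leaf stage.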

[2] = test system: wheat (Triticum aestivum); assay: as above; conditions: 10 days
In short: as §1

[3] = test system: blackgrass (Alopecurus myosuroides); assay: as above; conditions: 10 days
In short: as §1

soybean (Glycine max) [4] = assay: as above; conditions: 10 days
In short: as §1

[5] = test system: horseweed (Erigeron canadensis); assay: as above; conditions: 10 days
In short: as §1

[6] = test system: green foxtail (Setaria viridis); assay: as above; conditions: 10 days
In short: as §1

[7] = test system: barnyardgrass (Echinochloa crus-galli); assay: as above; conditions: 10 days
In short: as §1

kochia (Bassia scoparia) [8] = assay: as above; conditions: 10 days
In short: as §1

[9] = test system: ragweed (common ragweed, Ambrosia artemisiifolia); assay: as above; conditions: 10 days
In short: as §1

[10] = test system: oat, wild (wild oat, Avena fatua); assay: as above; conditions: 10 days
In short: as §1

[11] = test system: palmer (palmer amaranth, palmer pigweed, Amaranthus palmeri); assay: as above; conditions: 10 days
In short: as §1

[12] = test system: galium (catchweed bedstraw, Galium aparine); assay: as above; conditions: 10 days
In short: as §1

[13] = test system: ryegrass, Italian (italian ryegrass, Lolium multiflorum); assay: as above; conditions: 10 days
In short: as §1

rice (Oryza sativa) = assay: Test B flooded paddy test, visual plant response rating 0-100; conditions: 250 g ai/ha, Flood, applied to paddy water, evaluated after 13 days
In short: (§2)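 2-leaf plants; flood 3 cm over soil; compound dosed into paddy water; depth kept constant; greenhouse 13 d; visual scoring vs controls. Dash = no result.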

[14] = test system: barnyardgrass (Echinochloa crusgalli); assay: as above; conditions: 250 g ai/ha, Flood, applied to paddy water, evaluated after 13 days
In short: as §2

[15] = test system: sedge, umbrella (small-flower umbrella sedge, Cyperus difformis); assay: as above; conditions: 250 g ai/ha, Flood, applied to paddy water, evaluated after 13 days
In short: as §2

[16] = test system: ducksalad (Heteranthera limosa); assay: as above; conditions: 250 g ai/ha, Flood, applied to paddy water, evaluated after 13 days
In short: as §2

corn (Zea mays) [17] = assay: Test A preemergence soil spray, visual injury rating 0-100; conditions: 10 days, 0 = no effect, 100 = complete control
In short: as §1

[18] = test system: wheat (Triticum aestivum); assay: as above; conditions: 10 days, 0 = no effect, 100 = complete control
In short: as §1

[19] = test system: blackgrass (Alopecurus myosuroides); assay: as above; conditions: 10 days, 0 = no effect, 100 = complete control
In short: as §1

soybean (Glycine max) [20] = assay: as above; conditions: 10 days, 0 = no effect, 100 = complete control
In short: as §1

[21] = test system: green foxtail (Setaria viridis); assay: as above; conditions: 10 days, 0 = no effect, 100 = complete control
In short: as §1

[22] = test system: barnyardgrass (Echinochloa crus-galli); assay: as above; conditions: 10 days, 0 = no effect, 100 = complete control
In short: as §1

kochia (Bassia scoparia) [23] = assay: as above; conditions: 10 days, 0 = no effect, 100 = complete control
In short: as §1

[24] = test system: ragweed (common ragweed, Ambrosia artemisiifolia); assay: as above; conditions: 10 days, 0 = no effect, 100 = complete control
In short: as §1

[25] = test system: oat, wild (wild oat, Avena fatua); assay: as above; conditions: 10 days, 0 = no effect, 100 = complete control
In short: as §1

[26] = test system: palmer (palmer amaranth, palmer pigweed, Amaranthus palmeri); assay: as above; conditions: 10 days, 0 = no effect, 100 = complete control
In short: as §1

[27] = test system: ryegrass, Italian (italian ryegrass, Lolium multiflorum); assay: as above; conditions: 10 days, 0 = no effect, 100 = complete control
In short: as §1

[28] = 31 g ai/ha, postemergence, 0 = no effect, 100 = complete control
[29] = Postemergence, 125 g ai/ha, 0 is no effect, 100 is complete control

**Q.** With `CC(C)COC(=O)C1C=CC(NC(=O)C2(C)CN(c3cc(F)cc(F)c3)C(=O)O2)C1` (stereo not shown) [Compound 56] as the compound, how does the “Corn plant response rating (0-100)” value (corn (Zea mays) [1]; [28]) read?
**A.** 90

**Q.** What about the “Corn plant response rating (0 to 100 scale)” value (corn (Zea mays) [1]; [29]) of the same compound?
**A.** 100

**Q.** And the “Wheat plant response rating (0-100)” value [2, 28]?
**A.** 90

**Q.** And the “Wheat plant response rating (0 to 100 scale)” value [2, 29]?
**A.** 90

**Q.** What about the “Blackgrass plant response rating (0-100)” value [3, 28] of the same compound?
**A.** 60

**Q.** And the “Blackgrass plant response rating (0 to 100 scale)” value [3, 29]?
**A.** 90

**Q.** And the “Soybean plant response rating (0-100)” value (soybean (Glycine max) [4]; [28])?
**A.** 70

**Q.** What about the “Soybean plant response rating (0 to 100 scale)” value (soybean (Glycine max) [4]; [29]) of the same compound?
**A.** 70

**Q.** What about the “Horseweed plant response rating (0-100)” value [5, 28] of the same compound?
**A.** 20

**Q.** What about the “Horseweed plant response rating (0 to 100 scale)” value [5, 29] of the same compound?
**A.** 80

**Q.** What about the “Foxtail, Green plant response rating (0-100)” value [6, 28] of the same compound?
**A.** 30

**Q.** And the “Foxtail, Green plant response rating (0 to 100 scale)” value [6, 29]?
**A.** 90

**Q.** And the “Barnyardgrass plant response rating (0-100)” value [7, 28]?
**A.** 90

**Q.** And the “Barnyardgrass plant response rating (0 to 100 scale)” value [7, 29]?
**A.** 100

**Q.** And the “Kochia plant response rating (0-100)” value (kochia (Bassia scoparia) [8]; [28])?
**A.** 70

**Q.** What about the “Kochia plant response rating (0 to 100 scale)” value (kochia (Bassia scoparia) [8]; [29]) of the same compound?
**A.** 80

**Q.** And the “Ragweed plant response rating (0-100)” value [9, 28]?
**A.** 50

**Q.** What about the “Ragweed plant response rating (0 to 100 scale)” value [9, 29] of the same compound?
**A.** 70

**Q.** And the “Oat, Wild plant response rating (0-100)” value [10, 28]?
**A.** 90

**Q.** What about the “Oat, Wild plant response rating (0 to 100 scale)” value [10, 29] of the same compound?
**A.** 90

**Q.** What about the “Amaranth, Palmer plant response rating (0-100)” value [11, 28] of the same compound?
**A.** 90

**Q.** And the “Amaranth, Palmer / Pigweed, Palmer plant response rating (0 to 100 scale)” value [11, 29]?
**A.** 80

**Q.** What about the “Galium plant response rating (0-100)” value [12, 28] of the same compound?
**A.** 80

**Q.** And the “Galium plant response rating (0 to 100 scale)” value [12, 29]?
**A.** 80

**Q.** And the “Ryegrass, Italian plant response rating (0-100)” value [13, 28]?
**A.** 90

**Q.** What about the “Ryegrass, Italian plant response rating (0 to 100 scale)” value [13, 29] of the same compound?
**A.** 90

**Q.** And the “Plant response rating, Rice (0 to 100 scale, 0 is no effect and 100 is complete control)” value (rice (Oryza sativa))?
**A.** 15

**Q.** And the “Plant response rating, Barnyardgrass (0 to 100 scale, 0 is no effect and 100 is complete control)” value [14]?
**A.** 95

**Q.** What about the “Plant response rating, Sedge, Umbrella (0 to 100 scale, 0 is no effect and 100 is complete control)” value [15] of the same compound?
**A.** 50

**Q.** What about the “Plant response rating, Ducksalad (0 to 100 scale, 0 is no effect and 100 is complete control)” value [16] of the same compound?
**A.** 90

**Q.** And the “Corn plant response rating (0-100)” value (corn (Zea mays) [17]; 31 g ai/ha)?
**A.** 10

**Q.** And the “Corn plant response rating (0 to 100 scale)” value (corn (Zea mays) [17]; 125 g ai/ha)?
**A.** 90

**Q.** What about the “Wheat plant response rating (0-100)” value ([18]; 31 g ai/ha) of the same compound?
**A.** 90

**Q.** What about the “Wheat plant response rating (0 to 100 scale)” value ([18]; 125 g ai/ha) of the same compound?
**A.** 100

**Q.** What about the “Blackgrass plant response rating (0-100)” value ([19]; 31 g ai/ha) of the same compound?
**A.** 30

**Q.** What about the “Blackgrass plant response rating (0 to 100 scale)” value ([19]; 125 g ai/ha) of the same compound?
**A.** 90

**Q.** What about the “Soybean plant response rating (0-100)” value (soybean (Glycine max) [20]; 31 g ai/ha) of the same compound?
**A.** 30

**Q.** What about the “Soybean plant response rating (0 to 100 scale)” value (soybean (Glycine max) [20]; 125 g ai/ha) of the same compound?
**A.** 80

**Q.** What about the “Foxtail, Green plant response rating (0-100)” value ([21]; 31 g ai/ha) of the same compound?
**A.** 40

**Q.** What about the “Foxtail, Green plant response rating (0 to 100 scale)” value ([21]; 125 g ai/ha) of the same compound?
**A.** 90

**Q.** What about the “Barnyardgrass plant response rating (0-100)” value ([22]; 31 g ai/ha) of the same compound?
**A.** 30

**Q.** And the “Barnyardgrass plant response rating (0 to 100 scale)” value ([22]; 125 g ai/ha)?
**A.** 100

**Q.** And the “Kochia plant response rating (0-100)” value (kochia (Bassia scoparia) [23]; 31 g ai/ha)?
**A.** 0

**Q.** And the “Kochia plant response rating (0 to 100 scale)” value (kochia (Bassia scoparia) [23]; 125 g ai/ha)?
**A.** 90

**Q.** And the “Ragweed plant response rating (0-100)” value ([24]; 31 g ai/ha)?
**A.** 0

**Q.** And the “Ragweed plant response rating (0 to 100 scale)” value ([24]; 125 g ai/ha)?
**A.** 0

**Q.** And the “Oat, Wild plant response rating (0-100)” value ([25]; 31 g ai/ha)?
**A.** 90

**Q.** And the “Oat, Wild plant response rating (0 to 100 scale)” value ([25]; 125 g ai/ha)?
**A.** 90

**Q.** What about the “Amaranth, Palmer plant response rating (0-100)” value ([26]; 31 g ai/ha) of the same compound?
**A.** 0

**Q.** What about the “Amaranth, Palmer plant response rating (0 to 100 scale)” value ([26]; 125 g ai/ha) of the same compound?
**A.** 70

**Q.** What about the “Ryegrass, Italian plant response rating (0-100)” value ([27]; 31 g ai/ha) of the same compound?
**A.** 80

**Q.** And the “Ryegrass, Italian plant response rating (0 to 100 scale)” value ([27]; 125 g ai/ha)?
**A.** 90

From patent US20260285850A1, “SUBSTITUTED OXAZOLIDINONES AND IMIDAZOLINONES AS HERBICIDES” (FMC CORPORATION, priority 2023, published 2026)
